Reference: the NIST ThermoML archive (doi:10.1021/je060271a)

Details: 303.15 K, Liquid, Vibrating tube method

CCCCC(=O)OCC(COC(=O)CCCC)(COC(=O)CCCC)COC(=O)CCCC [pentaerythritol tetrapentanoate]
Details | mass density [kg/m3]
4917.5 kPa | 1014
4937.6 kPa | 1014
4960.8 kPa | 1014
4980.3 kPa | 1014.2
5000.8 kPa | 1014.1
5025.3 kPa | 1014.2
5046.6 kPa | 1014.1
5067.7 kPa | 1014.1
5090.5 kPa | 1014.1
5111.3 kPa | 1014.1
5136.1 kPa | 1014.1
5153.9 kPa | 1014.2
5159.6 kPa | 1014.2
5160.1 kPa | 1014.2
5161.3 kPa | 1014.2
5164.9 kPa | 1014.2
5167.4 kPa | 1014.3
5169.1 kPa | 1014.2
5170.1 kPa | 1014.2
5173.9 kPa | 1014.1
5178.6 kPa | 1014.2
5179.3 kPa | 1014.2
5180.5 kPa | 1014.2
5181.4 kPa | 1014.2
5181.7 kPa | 1014.2
5182.6 kPa | 1014.3
5182.9 kPa | 1014.3
5183.8 kPa | 1014.2
5184.3 kPa | 1014.2
5184.7 kPa | 1014.2
5185.4 kPa | 1014.2
5185.5 kPa | 1014.3
5189.7 kPa | 1014.1
5199.6 kPa | 1014.3
5209.2 kPa | 1014.3
5217.7 kPa | 1014.2
5223.9 kPa | 1014.2
5239.9 kPa | 1014.2
5266.9 kPa | 1014.4
5289.9 kPa | 1014.2
5312.7 kPa | 1014.4
5340.7 kPa | 1014.1
5364.2 kPa | 1014.3
5388.3 kPa | 1014.4
5417.9 kPa | 1014.3
5443 kPa | 1014.4
5468.4 kPa | 1014.4
5493.1 kPa | 1014.4
5518.4 kPa | 1014.5
5548.5 kPa | 1014.4
5573.5 kPa | 1014.4
5599.8 kPa | 1014.5
5631 kPa | 1014.4
5657.1 kPa | 1014.5
5684.4 kPa | 1014.6
5712.8 kPa | 1014.5
5747 kPa | 1014.4
5774.2 kPa | 1014.6
5801.5 kPa | 1014.6
5829.1 kPa | 1014.6
5862.5 kPa | 1014.7
5891.4 kPa | 1014.7
5920.4 kPa | 1014.8
5955.2 kPa | 1014.6
5985.3 kPa | 1014.7
6015.3 kPa | 1014.7
6045.8 kPa | 1014.8
6082.1 kPa | 1014.7
6112.3 kPa | 1014.8
6149.7 kPa | 1014.8
6181.5 kPa | 1014.8
6213.5 kPa | 1014.9
6246.6 kPa | 1014.8
6279.6 kPa | 1014.9
6319.4 kPa | 1014.9
6353.6 kPa | 1015
6388.4 kPa | 1014.9
6430.4 kPa | 1015
6466 kPa | 1014.9
6496.2 kPa | 1015
6524.4 kPa | 1015.1
6558.6 kPa | 1015.1
6587.6 kPa | 1015.1
6617.8 kPa | 1015.1
6648.1 kPa | 1015.2
6678.6 kPa | 1015.1
6714 kPa | 1015.2
6743.7 kPa | 1015.3
6774.5 kPa | 1015.2
6811.1 kPa | 1015.3
6842.3 kPa | 1015.2
6873.4 kPa | 1015.3
6911.1 kPa | 1015.3
6943.4 kPa | 1015.4
6975.7 kPa | 1015.2
7008.7 kPa | 1015.3
7048.1 kPa | 1015.3
7083.3 kPa | 1015.5
7119.9 kPa | 1015.4
7154.6 kPa | 1015.4
7190.2 kPa | 1015.4
7232.8 kPa | 1015.5
7266.1 kPa | 1015.6
7296.5 kPa | 1015.5
7326.2 kPa | 1015.5
7361.8 kPa | 1015.6
7392.7 kPa | 1015.6
7425.7 kPa | 1015.6
7461.8 kPa | 1015.7
7491.3 kPa | 1015.7
7529.6 kPa | 1015.6
7561.2 kPa | 1015.7
7593.6 kPa | 1015.8
7626.1 kPa | 1015.9
7659.1 kPa | 1015.6
7692.2 kPa | 1015.8
7732.6 kPa | 1015.9
7766.1 kPa | 1015.8
7800.6 kPa | 1015.9
7835 kPa | 1015.7
7876.5 kPa | 1015.9
7911.6 kPa | 1016
7947.1 kPa | 1016
7990.4 kPa | 1016
8026.7 kPa | 1015.9
8062.9 kPa | 1016.1
8107.6 kPa | 1016.1
8145.4 kPa | 1016.1
8184.2 kPa | 1016.2
8222.5 kPa | 1016.2
8262.2 kPa | 1016.2
8293.2 kPa | 1016.2
8323.8 kPa | 1016.3
8354.7 kPa | 1016.2
8392.8 kPa | 1016.3
8424.5 kPa | 1016.1
8457.1 kPa | 1016.3
8489 kPa | 1016.4
8528 kPa | 1016.3
8560.4 kPa | 1016.4
8593.7 kPa | 1016.5
8633.4 kPa | 1016.4
8666.8 kPa | 1016.3
8707.5 kPa | 1016.4
8742.2 kPa | 1016.4
8776.3 kPa | 1016.6
8818.4 kPa | 1016.6
8854.8 kPa | 1016.4
8890.8 kPa | 1016.5
8920.7 kPa | 1016.5
8952.9 kPa | 1016.6
8979.8 kPa | 1016.7
9013.1 kPa | 1016.5
9039.8 kPa | 1016.6
9066.8 kPa | 1016.6
9100.5 kPa | 1016.7
9128.4 kPa | 1016.7
9157.4 kPa | 1016.6
9191.7 kPa | 1016.8
9218.7 kPa | 1016.8
